How the values were obtained:
[1] = target: Cdk6/CyclinD3 (Homo sapiens (Human), UniProt Q00534); assay: Cdk6 kinase inhibition assay with recombinant Cdk6/CyclinD3, Rb substrate, [33P]-ATP filter plate; type: biochemical; conditions: 25 μM ATP, read-out: Cdk 6 IC50
Description: The Cdk4 and Cdk6 inhibitory activity of the compounds is measured with a kinase inhibition assay using recombinant Cdk4/CyclinD1 or Cdk6/CyclinD3 protein complexes. The protein substrate used in the assay is the retinoblastoma protein (Rb). The kinase reactions are carried out in a 96-well filter plate (MSDV N6B50, Millipore). […] The mixture is incubated at room temperature for 1 hour and the proteins precipitated with an equal volume of 20% TCA. The plates are washed with 10% TCA according to the manufacturer's instruction and dried at room temperature. The amount of the phosphorylated Rb is determined with a TopCount (PerkinElmer). The IC50 of a compound is determined by nonlinear regression curve fitting using software program Prism 5 (GraphPad Software).

[2] = target: Cdk4/CyclinD1 (Homo sapiens (Human), UniProt P11802); assay: Cdk4 kinase inhibition assay with recombinant Cdk4/CyclinD1, Rb substrate, [33P]-ATP filter plate; type: biochemical; conditions: 25 μM ATP, read-out: Cdk 4 IC50
Procedure, shortened: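 Recombinant Cdk4/CyclinD1 or Cdk6/CyclinD3 phosphorylated Rb protein with [33P]-ATP for 1 h at room temperature. Protein was TCA-precipitated on filter plates and bound radioactivity counted. IC50 by nonlinear regression.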

Sequence of Cdk6/CyclinD3 (Q00534 whole entry): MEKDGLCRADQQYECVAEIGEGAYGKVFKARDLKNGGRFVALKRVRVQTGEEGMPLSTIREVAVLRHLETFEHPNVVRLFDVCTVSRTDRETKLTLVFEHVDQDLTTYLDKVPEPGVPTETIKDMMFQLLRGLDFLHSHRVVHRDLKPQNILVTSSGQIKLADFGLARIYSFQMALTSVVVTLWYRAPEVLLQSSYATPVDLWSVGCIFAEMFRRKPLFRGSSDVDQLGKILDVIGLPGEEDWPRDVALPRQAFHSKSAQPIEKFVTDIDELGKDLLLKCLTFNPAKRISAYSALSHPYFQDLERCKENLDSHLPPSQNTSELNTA
Sequence of Cdk6/CyclinD3 (P30281 whole entry partner): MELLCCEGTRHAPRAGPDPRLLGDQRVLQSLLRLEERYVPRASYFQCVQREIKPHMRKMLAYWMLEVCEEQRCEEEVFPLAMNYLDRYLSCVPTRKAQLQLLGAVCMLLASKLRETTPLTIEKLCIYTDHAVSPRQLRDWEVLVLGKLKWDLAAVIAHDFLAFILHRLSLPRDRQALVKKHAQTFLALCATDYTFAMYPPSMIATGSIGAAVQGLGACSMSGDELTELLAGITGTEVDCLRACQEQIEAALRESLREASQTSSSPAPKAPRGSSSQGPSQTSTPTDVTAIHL
Sequence of Cdk4/CyclinD1 (P11802 whole entry): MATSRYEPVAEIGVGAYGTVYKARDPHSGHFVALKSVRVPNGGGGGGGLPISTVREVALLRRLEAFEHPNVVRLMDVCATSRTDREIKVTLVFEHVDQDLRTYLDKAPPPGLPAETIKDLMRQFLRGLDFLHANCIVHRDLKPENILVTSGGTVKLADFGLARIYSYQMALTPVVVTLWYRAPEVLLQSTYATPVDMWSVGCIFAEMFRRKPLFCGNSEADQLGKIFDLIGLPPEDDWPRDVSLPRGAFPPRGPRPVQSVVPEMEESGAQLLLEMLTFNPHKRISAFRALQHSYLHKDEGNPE
Sequence of Cdk4/CyclinD1 (P24385 whole entry partner): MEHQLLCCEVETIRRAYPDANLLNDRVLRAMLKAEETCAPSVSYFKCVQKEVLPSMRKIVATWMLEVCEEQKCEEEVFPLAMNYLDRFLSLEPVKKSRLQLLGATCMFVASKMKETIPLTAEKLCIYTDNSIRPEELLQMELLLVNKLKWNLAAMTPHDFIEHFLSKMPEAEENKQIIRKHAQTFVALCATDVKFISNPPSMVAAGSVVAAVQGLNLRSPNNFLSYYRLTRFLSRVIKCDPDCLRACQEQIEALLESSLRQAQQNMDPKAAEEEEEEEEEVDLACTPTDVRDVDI

SMILES | IC50 [1] | IC50 [2]
CC1(n2c3cnccc3c3cnc(Nc4ccc(N5CCNCC5)cn4)nc32)CCC1 [Example 33, [9-(1-Methyl-cyclobutyl)-9H-pyrido[4′,3′:4,5]pyrrolo[2,3-d]pyrimidin-2-yl]-(5-piperazin-1-yl-pyridin-2-yl)-amine] | 8.9 nM | 5.3 nM
c1ccc2c(c1)c1cnc(Nc3ccc(N4CCNCC4)cc3)nc1n2C1CCOCC1 [Example 46, (4-piperazin-1-yl-phenyl)-[9-(tetrahydro-pyran-4-yl)-9H-pyrimido[4,5-b]indol-2-yl]-amine] | 0.75 nM | 2 nM
Cc1cc(Nc2ncc3c4ccncc4n(C4CCCC4)c3n2)cnc1N1CCNCC1 [Example 5, 9-cyclopentyl-N-(5-methyl-6-(1-piperazinyl)-3-pyridinyl)-9H-pyrido-[4′,3′:4,5]pyrrolo[2,3-d]pyrimidin-2-amine] | 4.2 nM | 0.91 nM
OCC1(n2c3cnccc3c3cnc(Nc4ccc(N5CCNCC5)cn4)nc32)CCCC1 [Example 44, {1-[2-(5-piperazin-1-yl-pyridin-2-ylamino)-pyrido[4′,3′:4,5]pyrrolo[2,3-d]pyrimidin-9-yl]-cyclopentyl}-methanol] | 25 nM | 11 nM
CC[C@@H](C)n1c2cnccc2c2cnc(Nc3ccc(N4CCNC(C)(C)C4)nn3)nc21 [Example 324] | 20 nM | 11 nM
CN(C)C1CC2CCC(C1)N2c1ccc(Nc2ncc3c4ccncc4n(C4CCCC4)c3n2)nc1 (stereo not shown) [Example 158, 9-cyclopentyl-N-(5-(3-(dimethylamino)-8-azabicyclo[321]oct-8-yl)-2-pyridinyl)-9H-pyrido[4′,3′:4,5]pyrrolo[2,3-d]pyrimidin-2-amine] | 5.3 nM | 5.4 nM
Oc1nccc2c3cnc(Nc4ccc(CN5CCNCC5)cn4)nc3n(C3CCCC3)c12 [Example 214, 9-cyclopentyl-2-((5-(1-piperazinylmethyl)-2-pyridinyl)amino)-9H-pyrido[4′,3′:4,5]pyrrolo[2,3-d]pyrimidin-8-ol] | 21 nM | 14 nM
c1cc2c3cnc(Nc4ccc(N5CCOCC5)nn4)nc3n(C3CCCC3)c2cn1 [Example 106] | 24.3 nM | 4 nM
c1cc2c3cnc(Nc4ccc(NCC5CCNC5)nn4)nc3n(C3CCCC3)c2cn1 (stereo not shown) [Example 98] | 26.6 nM | 2.5 nM
C[C@@H](O)CNC1CCN(c2ccc(Nc3ncc4c5ccncc5n(C5CCCC5)c4n3)nc2)CC1 [Example 460] | 12 nM | 
O[C@@H]1CCN(c2ccc(Nc3ncc4c5ccnc(F)c5n(C5CCCC5)c4n3)nc2)C1 [Example 186A, (3R)-1-(6-((9-cyclopentyl-8-fluoro-9H-pyrido[4′,3′:4,5]pyrrolo[2,3-d]pyrimidin-2-yl)amino)-3-pyridinyl)-3-pyrrolidinol] | 2 nM | 
c1cc2c3cnc(Nc4ccc(N5CCNCC5)cc4)nc3n(C3CC4CCC3C4)c2cn1 (stereo not shown) [Example 40, (9-Bicyclo[2.2.1]hept-2-yl-9H-pyrido[4′,3′:4,5]pyrrolo[2,3-d]pyrimidin-2-yl)-(4-piperazin-1-yl-phenyl)-amine] | 2.6 nM | 
O[C@H]1CCN(c2ccc(Nc3ncc4c5ccnc(F)c5n(C5CCCC5)c4n3)nc2)C1 [Example 186B, (3S)-1-(6-((9-cyclopentyl-8-fluoro-9H-pyrido[4′,3′:4,5]pyrrolo[2,3-d]pyrimidin-2-yl)amino)-3-pyridinyl)-3-pyrrolidinol] | 4.8 nM | 
C[C@H](O)CNC1CCN(c2ccc(Nc3ncc4c5ccncc5n(C5CCCC5)c4n3)nc2)CC1 [Example 459] | 14 nM | 
C[C@H](O)Cn1c2cnccc2c2cnc(Nc3ccc(N4CCC(N(C)C)CC4)nn3)nc21 [Example 410] |  | 240 nM
CC1(C)CN(c2ccc(Nc3ncc4c5ccncc5n([C@@H]5CCNC5)c4n3)nc2)CCN1 [Example 338] |  | 302 nM
CCN(CC)C1CCN(c2ccc(Nc3ncc4c5ccnc(O)c5n(C5CCCC5)c4n3)nc2)CC1 [Example 284, 9-Cyclopentyl-2-((5-(4-(diethylamino)-1-piperidinyl)-2-pyridinyl)amino)-9H-pyrido[4′,3′:4,5]pyrrolo[2,3-d]pyrimidin-8-ol] |  | 5 nM
c1cc2c3cnc(Nc4ccc(NCC5CCNC5)cn4)nc3n(C3CCCC3)c2cn1 (stereo not shown) [Example 70] |  | 3.6 nM
O=S1(=O)CCC(O)(c2ccc(Nc3ncc4c5ccncc5n(C5CCCC5)c4n3)nc2)CC1 [Example 263, 4-(6-((9-cyclopentyl-9H-pyrido[4′,3′:4,5]pyrrolo[2,3-d]pyrimidin-2-yl)amino)-3-pyridinyl)tetrahydro-2H-thiopyran-4-ol 1,1-dioxide] |  | 14 nM
COC1CCN(c2ccc(Nc3ncc4c5ccncc5n(C5CCCC5)c4n3)nn2)C1 (stereo not shown) [Example 110] |  | 3.4 nM
C[C@H]1CN(c2ccc(Nc3ncc4c5ccncc5n([C@@H]5CCOC5)c4n3)nn2)CCN1 [Example 429] |  | 92 nM
O=C1CN(c2ccc(Nc3ncc4c5ccncc5n(C5CCCC5)c4n3)nn2)CCN1 [Example 115] |  | 2.3 nM

SMILES | IC50 [1] | IC50 [2]
O=c1[nH]ccc2c3cnc(Nc4ccc(N5CCNCC5)nn4)nc3n(C3CCCC3)c12 [Example 122, 9-Cyclopentyl-2-((6-(1-piperazinyl)-3-pyridazinyl)amino)-7,9-dihydro-8H-pyrido[4′,3′:4,5]pyrrolo[2,3-d]pyrimidin-8-one] |  | 8.7 nM
CN(C)CC(=O)N1CCN(c2ccc(Nc3ncc4c5ccnc(F)c5n(C5CCCC5)c4n3)nc2)CC1 [Example 193, 9-Cyclopentyl-N-(5-(4-((dimethylamino)acetyl)-1-piperazinyl)-2-pyridinyl)-8-fluoro-9H-pyrido[4′,3′:4,5]pyrrolo[2,3-d]pyrimidin-2-amine] |  | 68 nM
C[C@@H]1CN(c2ccc(Nc3ncc4c5ccnc(F)c5n(C5CCCC5)c4n3)nc2)CCN1 [Example 178, 9-Cyclopentyl-8-fluoro-N-(5-((3R)-3-methyl-1-piperazinyl)-2-pyridinyl)-9H-pyrido[4′,3′:4,5]pyrrolo[2,3-d]pyrimidin-2-amine] |  | 5 nM
CC1CCN(c2ccc(Nc3ncc4c5ccncc5n(C5CCCC5)c4n3)nc2)C1 (stereo not shown) [Example 74] |  | 56 nM
OC[C@H]1CN(c2ccc(Nc3ncc4c5ccnc(F)c5n(C5CCCC5)c4n3)nc2)CCN1 [Example 196, ((2R)-4-(6-((9-Cyclopentyl-8-fluoro-9H-pyrido[4′,3′:4,5]pyrrolo[2,3-d]pyrimidin-2-yl)amino)-3-pyridinyl)-2-piperazinyl)methanol] |  | 2.4 nM
C[C@H]1CN(c2ccc(Nc3ncc4c5ccncc5n([C@@H](C)CO)c4n3)nn2)CCN1 [Example 377] |  | 73 nM
CNC1CCN(c2ccc(Nc3ncc4c5ccncc5n([C@@H]5CCNC5)c4n3)nc2)CC1 [Example 340] |  | 370 nM
CN(C)C1CCN(c2ccc(Nc3ncc4c5ccnc(O)c5n(C5CCC(C)(C)CC5)c4n3)nn2)CC1 [Example 211, 2-((6-(4-(dimethylamino)-1-piperidinyl)-3-pyridazinyl)amino)-9-(4,4-dimethylcyclohexyl)-9H-pyrido[4′,3′:4,5]pyrrolo[2,3-d]pyrimidin-8-ol] |  | 9.8 nM
c1cc2c3cnc(Nc4cnc(N5CCCNCC5)cn4)nc3n(C3CCCC3)c2cn1 [Example 86] |  | 6.4 nM
C[C@H](CO)n1c2cnccc2c2cnc(Nc3ccc(N4CC[C@@H](O)C4)cn3)nc21 [Example 382] |  | 152 nM
CN(C)C1CCN(c2ccc(Nc3ncc4c5ccnc(Cl)c5n(C5CCCC5)c4n3)nn2)CC1 [Example 154, 8-Chloro-9-cyclopentyl-N-(6-(4-(dimethylamino)-1-piperidinyl)-3-pyridazinyl)-9H-pyrido[4′,3′:4,5]pyrrolo[2,3-d]pyrimidin-2-amine] |  | 20 nM
O=C(O)CC1CCN(c2ccc(Nc3ncc4c5ccnc(F)c5n(C5CCCC5)c4n3)nc2)CC1 [Example 175, (1-(6-((9-Cyclopentyl-8-fluoro-9H-pyrido[4′,3′:4,5]pyrrolo[2,3-d]pyrimidin-2-yl)amino)-3-pyridinyl)-4-piperidinyl)acetic acid] |  | 37 nM
C[C@H](CO)n1c2cnccc2c2cnc(Nc3ccc(N4CCNCC4)nn3)nc21 [Example 384] |  | 143 nM
C[C@H](O)Cn1c2cnccc2c2cnc(Nc3ccc(N4CCN[C@@H](C)C4)cn3)nc21 [Example 423] |  | 75 nM
C[C@@H]1CN(c2cnc(Nc3ncc4c5ccncc5n(C5CCCC5)c4n3)cn2)CCN1 [Example 80] |  | 3.5 nM
c1cc2c3cnc(Nc4ccc(N5CCNCC5)nn4)nc3n([C@@H]3CCOC3)c2cn1 [Example 427] |  | 24 nM
COc1nccc2c3cnc(Nc4ccc(N5CCC(N6CCCC6)CC5)cn4)nc3n(C3CCC(C)(C)CC3)c12 [Example 209, 9-(4,4-dimethylcyclohexyl)-8-methoxy-N-(5-(4-(1-pyrrolidinyl)-1-piperidinyl)-2-pyridinyl)-9H-pyrido[4′,3′:4,5]pyrrolo[2,3-d]pyrimidin-2-amine] |  | 11 nM
CC1CN(c2ccc(Nc3ncc4c5ccncc5n(C5CCCC5)c4n3)nc2)CC(C)N1 (stereo not shown) [Example 72] |  | 2.3 nM
O=C(c1ccc(Nc2ncc3c4ccnc(O)c4n(C4CCCC4)c3n2)nc1)N1CCNCC1 [Example 223, 9-cyclopentyl-2-((5-(1-piperazinylcarbonyl)-2-pyridinyl)amino)-9H-pyrido[4′,3′:4,5]pyrrolo[2,3-d]pyrimidin-8-ol] |  | 13 nM
COCCn1c2cnccc2c2cnc(Nc3ccc(N4CCC(N(C)C)CC4)nn3)nc21 [Example 315] |  | 1380 nM
O[C@H]1CCC[C@@H]1n1c2cnccc2c2cnc(Nc3ccc(N4CCNCC4)nn3)nc21 [Example 404] |  | 820 nM

Reference: patent US8841312B2, “Fused pyridine, pyrimidine and triazine compounds as cell cycle inhibitors” (Amgen Inc., priority 2007, dated 2014)
